Data published in US10065990B2, “Cyclic peptide compound, and preparation method, pharmaceutical composition and use thereof” (HANGZHOU GUANYU BIO-MEDICAL CO., LTD, priority 2013, dated 2018).
Read-outs that look alike come from different tables or passages of the source.

Experiments:
HDAC2 = HDAC2 (Homo sapiens, UniProt Q92769); experiment: HDAC biochemical activity measurement (fluorescent substrate deacetylation);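 also: HDAC2 enzyme with an acetyl-lysine fluorescent substrate, then developer added, fluorescence read at excitation 360 nm and emission 460 nm, inhibition measured across several compound concentrations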; settings: 37° C. 30 minutes
[1] = tested on: PANC-1 (Pac-1, human pancreatic cancer cells); experiment: MTT cancer cell growth inhibition; assay type: cell-based; settings: Homo sapiens, PANC-1, 72 h, MTT
Method in brief: (§1)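 GI50 values come from MTT viability: after 72 h compound exposure (final 10^−5–10^−10 M, three wells each) of cells plated overnight at 1500/well in 10% FBS medium, MTT was given for 4 h. The DMSO-solubilised formazan was then measured at 570 nm.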

[2] = tested on: lncap (prostate cancer cells); experiment: MTT cancer cell growth inhibition; assay type: cell-based; settings: Homo sapiens, LNCaP, 72 h, MTT
Method in brief: as §1

[3] = tested on: U937 (human leukemia cells); experiment: MTT cancer cell growth inhibition; assay type: cell-based; settings: Homo sapiens, U-937, 72 h, MTT
Method in brief: as §1

[4] = tested on: N-87 (human gastric cancer cells); experiment: MTT cancer cell growth inhibition; assay type: cell-based; settings: Homo sapiens, 72 h, MTT, 72 hours incubation, N-87 cells; read-out: GI50 N-87
Method in brief: as §1

[5] = tested on: KBM-5 (human chronic myelogenous leukemia); experiment: MTT cancer cell growth inhibition; assay type: cell-based; settings: Homo sapiens, KBM5, 72 h, MTT, 72 hours incubation, KBM-5 cells; read-out: GI50 KBM-5
Method in brief: as §1

[6] = tested on: MDA-MB-231 (breast cancer cells); experiment: MTT cancer cell growth inhibition; assay type: cell-based; settings: Homo sapiens, MDA-MB-231, 72 h, read-out: GI50 MDA-MB-231, MTT, 72 hours incubation, MDA-MB-231 cells
Method in brief: as §1

[7] = tested on: DU145 (human prostate cancer cells); experiment: MTT cancer cell growth inhibition; assay type: cell-based; settings: Homo sapiens, DU-145, 72 h, MTT
Method in brief: as §1

[8] = tested on: HCC827 (human non-small cell lung cancer cells); experiment: MTT cancer cell growth inhibition; assay type: cell-based; settings: Homo sapiens, HCC827, 72 h, MTT, 72 hours incubation, HCC827 cells; read-out: GI50 HCC827
Method in brief: as §1

[9] = tested on: SGC-7901 (human gastric cancer cells); experiment: MTT cancer cell growth inhibition; assay type: cell-based; settings: Homo sapiens, SGC-7901, 72 h, MTT, 72 hours incubation, SGC-7901 cells; read-out: GI50 SGC-7901
Method in brief: as §1

[10] = tested on: MOLT-4 (human acute lymphoblastic leukemia cells); experiment: MTT cancer cell growth inhibition; assay type: cell-based; settings: Homo sapiens, MOLT-4, 72 h, MTT
Method in brief: as §1

[11] = tested on: K562 (human leukemia cells); experiment: MTT cancer cell growth inhibition; assay type: cell-based; settings: Homo sapiens, K562, 72 h, MTT, 72 hours incubation, K562 cells; read-out: GI50 K562
Method in brief: as §1

[12] = tested on: HT1080 (human fibrosarcoma cells); experiment: MTT cancer cell growth inhibition; assay type: cell-based; settings: Homo sapiens, HT-1080, 72 h, MTT
Method in brief: as §1

[13] = tested on: BGC-823 (human gastric cancer cells); experiment: MTT cancer cell growth inhibition; assay type: cell-based; settings: Homo sapiens, BGC-823, 72 h, MTT
Method in brief: as §1

[14] = tested on: Huh-7 (human hepatoma cells); experiment: MTT cancer cell growth inhibition; assay type: cell-based; settings: Homo sapiens, Huh-7, 72 h, MTT, 72 hours incubation, Huh-7 cells; read-out: GI50 Huh-7
Method in brief: as §1

[15] = tested on: H1975 (non-small cell lung adenocarcinoma); experiment: MTT cancer cell growth inhibition; assay type: cell-based; settings: Homo sapiens, NCI-H1975, 72 h, MTT, 72 hours incubation, H1975 cells; read-out: GI50 H1975
Method in brief: as §1

[16] = tested on: Bel-7402 (human hepatoma cells); experiment: MTT cancer cell growth inhibition; assay type: cell-based; settings: Homo sapiens, Bel-7402, 72 h, MTT, 72 hours incubation, Bel-7402 cells; read-out: GI50 Bel-7402
Method in brief: as §1

[17] = tested on: A549 (human lung cancer cells); experiment: MTT cancer cell growth inhibition; assay type: cell-based; settings: Homo sapiens, A549, 72 h, MTT
Method in brief: as §1

[18] = tested on: KBM5-T315I (human chronic myelogenous leukemia); experiment: MTT cancer cell growth inhibition; assay type: cell-based; settings: Homo sapiens, 72 h, MTT, 72 hours incubation, KBM5-T315I cells; read-out: GI50 KBM5-T315I
Method in brief: as §1

[19] = tested on: Hela (human cervical cancer cells); experiment: MTT cancer cell growth inhibition; assay type: cell-based; settings: Homo sapiens, HeLa, 72 h, MTT
Method in brief: as §1

[20] = tested on: MCF-7 (human breast cancer cells); experiment: MTT cancer cell growth inhibition; assay type: cell-based; settings: Homo sapiens, MCF7, 72 h
Method in brief: as §1

[21] = 72 hours incubation, read-out: GI50 PAN
[22] = 72 hours, present invention, read-out: GI50 PANC-1, a
[23] = 72 hours, present invention, read-out: GI50 lncap, a
[24] = 72 hours, present invention, read-out: GI50 U937, a
[25] = 72 hours, present invention, read-out: GI50 Du145, a
[26] = 72 hours incubation, read-out: GI50 Mol
[27] = 72 hours, present invention, read-out: GI50 Molt-4, a
[28] = 72 hours incubation, read-out: GI50 HT1
[29] = 72 hours, present invention, read-out: GI50 HT1080, a
[30] = 72 hours, present invention, read-out: GI50 BGC823, a
[31] = 72 hours incubation, read-out: GI50 A54
[32] = 72 hours, present invention, read-out: GI50 A549, a
[33] = 72 hours incubation, read-out: GI50 Hela
[34] = 72 hours, present invention, read-out: GI50 Hela, a
[35] = 72 hours incubation, read-out: GI50 MCF
[36] = 72 hours, present invention, read-out: GI50 MCF7, a
[37] = 72 hours incubation, read-out: GI50 lnca
[38] = 72 hours incubation, read-out: GI50 U93
[39] = 72 hours incubation, read-out: GI50 Du1
[40] = 72 hours incubation, read-out: GI50 BG

Chain of HDAC2 (Q92769 whole entry, species assumed): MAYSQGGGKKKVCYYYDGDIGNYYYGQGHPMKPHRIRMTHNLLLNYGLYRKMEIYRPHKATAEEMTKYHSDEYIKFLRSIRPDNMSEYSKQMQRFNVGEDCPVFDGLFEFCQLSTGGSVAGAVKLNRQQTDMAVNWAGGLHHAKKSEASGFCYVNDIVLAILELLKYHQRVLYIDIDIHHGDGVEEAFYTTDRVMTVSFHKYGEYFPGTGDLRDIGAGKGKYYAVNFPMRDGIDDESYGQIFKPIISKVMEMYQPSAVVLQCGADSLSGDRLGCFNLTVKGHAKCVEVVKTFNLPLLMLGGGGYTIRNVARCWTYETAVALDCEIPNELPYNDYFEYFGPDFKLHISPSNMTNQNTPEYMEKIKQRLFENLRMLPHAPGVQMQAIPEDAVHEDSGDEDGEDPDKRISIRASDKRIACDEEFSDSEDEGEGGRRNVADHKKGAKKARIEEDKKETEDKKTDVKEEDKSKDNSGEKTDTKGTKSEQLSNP

SMILES | IC50 (HDAC2) | GI50 [1, 21] | GI50 [4] | GI50 [5] | GI50 [6] | GI50 [8] | GI50 [9] | GI50 [10, 26] | GI50 [11] | GI50 [12, 28] | GI50 [14] | GI50 [15] | GI50 [16] | GI50 [17, 31] | GI50 [18] | GI50 [19, 33] | GI50 [20, 35] | GI50 [2, 37] | GI50 [3, 38] | GI50 [7, 39] | further results
C/C=C1\NC(=O)c2cccc(n2)CNC(=O)C[C@@H](/C=C/CCSC(=O)CCCCCCC)OC(=O)[C@H](CC)NC1=O [Compound 9] | 64 nM | 60 nM | 35 nM | 44 nM | 97 nM | 53 nM | 31 nM | 10 nM | 83 nM | 40 nM | 53 nM | 26 nM | 83 nM | 80 nM | 26 nM | 50 nM | 30 nM | – | – | – | GI50 [1, 22]: 60 nM; GI50 [2, 23]: 9 nM; GI50 [3, 24]: 1 nM; GI50 [7, 25]: 2 nM; GI50 [10, 27]: 11 nM; GI50 [12, 29]: 40 nM; GI50 [13, 30]: 7 nM; GI50 [17, 32]: 80 nM; GI50 [19, 34]: 50 nM; GI50 [20, 36]: 30 nM
C/C=C1\NC(=O)c2cccc(n2)CNC(=O)C[C@@H](/C=C/CCSC(=O)CCCCCCC)OC(=O)[C@H](Cc2ccccc2)NC1=O [Compound 14] | 59 nM | 530 nM | 36 nM | 94 nM | 85 nM | 18 nM | 43 nM | 20 nM | 36 nM | 300 nM | 92 nM | 62 nM | 84 nM | 100 nM | 12 nM | 220 nM | 400 nM | 200 nM | 30 nM | 10 nM | GI50 [1, 22]: 530 nM; GI50 [2, 23]: 200 nM; GI50 [3, 24]: 3 nM; GI50 [7, 25]: 12 nM; GI50 [10, 27]: 20 nM; GI50 [12, 29]: 300 nM; GI50 [13, 40]: 200 nM; GI50 [13, 30]: 200 nM; GI50 [17, 32]: 100 nM; GI50 [19, 34]: 220 nM; GI50 [20, 36]: 400 nM
C/C=C1\NC(=O)c2nc(ccc2SC)CNC(=O)C[C@@H](/C=C/CCSC=O)OC(=O)[C@H](C(C)C)NC1=O [Compound 168] | 41 nM | – | 94 nM | 22 nM | 12 nM | 35 nM | 34 nM | – | 34 nM | – | 56 nM | 66 nM | 44 nM | – | 36 nM | – | – | – | – | – | GI50 ([1]; PANC-1 cells, 72 hours incubation, read-out: GI50 PAN): 60 nM; GI50 ([2]; lncap cells, 72 hours incubation, read-out: GI50 lnca): 20 nM; GI50 ([3]; U937 cells, 72 hours incubation, read-out: GI50 U93): 40 nM; GI50 ([7]; DU145 cells, 72 hours incubation, read-out: GI50 Du1): 50 nM; GI50 ([10]; MOLT-4 cells, 72 hours incubation, read-out: GI50 Mol): 100 nM; GI50 ([12]; HT1080 cells, 72 hours incubation, read-out: GI50 HT1): 130 nM; GI50 ([13]; BGC-823 cells, 72 hours incubation, read-out: GI50 BG): 10 nM; GI50 ([17]; A549 cells, 72 hours incubation, read-out: GI50 A54): 80 nM; GI50 ([19]; Hela cells, 72 hours incubation, read-out: GI50 Hela): 50 nM; GI50 ([20]; MCF-7 cells, 72 hours incubation, read-out: GI50 MCF): 60 nM
C/C=C1\NC(=O)c2nc(ccc2C)CNC(=O)C[C@@H](/C=C/CCSC(C)=O)OC(=O)[C@H](Cc2ccccc2)NC1=O [Compound 66] | 16 nM | 30 nM | 61 nM | 91 nM | 38 nM | 34 nM | 25 nM | 30 nM | 37 nM | 30 nM | 38 nM | 27 nM | 34 nM | 20 nM | 31 nM | 90 nM | 30 nM | 30 nM | 20 nM | 30 nM | GI50 [13, 40]: 60 nM
C/C=C1\NC(=O)c2nc(ccc2F)CNC(=O)C[C@@H](/C=C/CCSC(C)=O)OC(=O)[C@H](C)NC1=O [Example 63] | 58 nM | 90 nM | 59 nM | 93 nM | 49 nM | 94 nM | 51 nM | 40 nM | 53 nM | 90 nM | 49 nM | 34 nM | 94 nM | 50 nM | 57 nM | 90 nM | 50 nM | 40 nM | 30 nM | 50 nM | GI50 [13, 40]: 50 nM
